Experimental data from paper PMC7155171, “Probing the Open Global Health Chemical Diversity Library for Multistage-Active Starting Points for Next-Generation Antimalarials” (ACS Infectious Diseases, 2020).
Where two headings read alike, the source gives them in different places.

Test system: P. falciparum Dd2 (PfLuc) line expressing firefly luciferase, asexual blood stage
Test: microbe, parasite or virus in culture
Assay type: cell-based, Plasmodium falciparum
Conditions: Plasmodium falciparum
[1] = DD2, read-out: P. falciparum Luciferase ABS 11-pt Reconfirmation Dose Response (48hr): IC50, 11-pt dose response, 48hr
[2] = DD2, 8-pt dose response, 96hr, read-out: P. falciparum Luciferase ABS 8-pt Reconfirmation Dose Response (96hr): IC50
[3] = DD2, 8-pt dose response, 96hr, read-out: P. falciparum Luciferase ABS 8-pt Reconfirmation Dose Response (96hr): Maximum inhibition (%)
[4] = DD2, 11-pt dose response, 48hr, read-out: P. falciparum Luciferase ABS 11-pt Reconfirmation Dose Response (48hr): Maximum inhibition (%)
[5] = DD2, 11-pt dose response, 96hr, read-out: P. falciparum Luciferase ABS 11-pt Reconfirmation Dose Response (96hr): IC50
[6] = DD2, 11-pt dose response, 96hr, read-out: P. falciparum Luciferase ABS 11-pt Reconfirmation Dose Response (96hr): Maximum inhibition (%)
[7] = DD2, read-out: CDD P. falciparum Luciferase ABS 11-pt Reconfirmation Dose Response (48hr): IC50 (μM), 11-pt dose response, 48hr
[8] = DD2, 8-pt dose response, 96hr, read-out: CDD P. falciparum Luciferase ABS 8-pt Reconfirmation Dose Response (96hr): IC50
[9] = DD2, 8-pt dose response, 96hr, read-out: CDD P. falciparum Luciferase ABS 8-pt Reconfirmation Dose Response (96hr): Maximum inhibition (%)
[10] = DD2, 11-pt dose response, 48hr, read-out: CDD P. falciparum Luciferase ABS 11-pt Reconfirmation Dose Response (48hr): Maximum inhibition (%)
[11] = DD2, 11-pt dose response, 96hr, read-out: CDD P. falciparum Luciferase ABS 11-pt Reconfirmation Dose Response (96hr): IC50
[12] = DD2, 11-pt dose response, 96hr, read-out: CDD P. falciparum Luciferase ABS 11-pt Reconfirmation Dose Response (96hr): Maximum inhibition (%)

Structure (SMILES)	IC50 [2] [µM]	Emax [3] [%]	also measured
Cc1cnn(CCCNCc2csc(COc3ccccc3)n2)c1 [DDD01077297]	1.25	85.8	IC50 [1]: 7.24 µM; Emax [4]: 63.7%; IC50 [5]: 1.2 µM; Emax [6]: 86.7%
C[C@@H]1CN(C(=O)C2CCS(=O)(=O)CC2)CC[C@@]1(O)C1CCOCC1 [DDD01250493]	1.67	82.2	–
CCCOc1ccccc1CN[C@@H]1CCC[C@H]1Cc1cc(C)no1 [DDD01060989]	2.71	79.8	–
O=C([C@@H]1Cc2[nH]cnc2CN1Cc1cc2ccccc2o1)N1CCCC1 [DDD01024952]	1.42	91	–
CC(C)[C@H](CO)Nc1nccc(-c2c[nH]nc2-c2ccncc2)n1 [DDD01235869]	1.69	82	–
CC(C)(NCc1cccc(O)c1)c1ccc2c(c1)OCO2 [DDD01063924]	1.21	84.9	–
Cc1cnccc1CN1CC[C@H](Oc2cccc(F)c2)[C@@](C)(O)C1 [DDD01060866]	1.79	91.8	–
c1cnc(N2CCC3(CC2)CN(CC2CC2)c2ccccc23)nc1 [DDD01036239]	1.74	90.6	–
CN(C)CCN(Cc1cccnc1)C(=O)c1ccn(-c2ccccc2)n1 [DDD01066387]	1.43	81.1	–
COc1cccc(-n2ccc3nc(N4CCCC4)ncc3c2=O)c1 [DDD01034957]	1.6	95.4	IC50 [1]: > 4.16 µM; Emax [4]: 13.2%; IC50 [5]: 0.531 µM; Emax [6]: 98.6%
Cc1cc(Cc2cccc(C(F)(F)F)c2)cc(C2CCCNC2)n1 (stereo not drawn) [DDD01057885]	1.24	92	IC50 [1]: 4.53 µM; IC50 [5]: 0.958 µM; Emax [6]: 100%
Cc1cc(C)c2cc(CNC3CCCCC3)c3nn(C)c(=O)n3c2c1 [DDD01060652]	1.15	88.2	–
Cc1ccc(CN2CCCC3(CCN(Cc4ccoc4)CC3)C2)cc1 [DDD01031609]	1.16	88.7	IC50 [1]: 3.17 µM; Emax [4]: 88.7%; IC50 [5]: 0.742 µM; Emax [6]: 98.3%
CCC(CNC(=O)CNC(C)=O)Oc1cccc(F)c1 (stereo not drawn) [DDD01066100]	2.09	83.9	IC50 [1]: 6.31 µM; Emax [4]: 55.6%; IC50 [5]: 2.15 µM; Emax [6]: 83.4%
Cc1cc(S(=O)(=O)NCC2CNCCOC2)c(C)cc1Cl (stereo not drawn) [DDD01253448]	1.24	89.3	IC50 [1]: > 4.16 µM; Emax [4]: 24.9%; IC50 [5]: 1.64 µM; Emax [6]: 89%
CCC(NCc1ccccc1Cl)c1ccccc1OCC(=O)NC (stereo not drawn) [DDD01075649]	1.9	81.7	IC50 [1]: > 12.5 µM; Emax [4]: 57.7%; IC50 [5]: 3.66 µM; Emax [6]: 86.1%
CCC(CC)(CN)NC(C)c1ccccc1 (stereo not drawn) [DDD01061915]	–	–	IC50 [7]: > 12.5 µM; IC50 [8]: 1.02 µM; Emax [9]: 85.9%; Emax [10]: 49.2%; IC50 [11]: > 1.39 µM; Emax [12]: 87.7%
Cc1ncc(CN(C)C2CCCN(CCc3ccccc3)C2)n1C (stereo not drawn) [DDD01244648]	–	–	IC50 [7]: 6.24 µM; IC50 [8]: 0.88 µM; Emax [9]: 88.5%; Emax [10]: 55.1%; IC50 [11]: 1.78 µM; Emax [12]: 88.7%
O=C(CCN1CCCC1c1cccc2c1OCCO2)N1CCCCC1 (stereo not drawn) [DDD01070009]	–	–	IC50 [7]: 6.96 µM; IC50 [8]: 1.06 µM; Emax [9]: 80.3%; Emax [10]: 51%; IC50 [11]: 2.64 µM; Emax [12]: 84.9%
CCN1CCCC(CNC(=O)C2(c3cc(C)cc(C)c3)CCC2)C1 (stereo not drawn) [DDD01296287]	1.39	–	–
CN1CCC(N(C)C[C@H]2CC[C@@H](Cc3ccc4occc4c3)O2)CC1 [DDD01250070]	1.57	82.8	–
CCN1CCC(CNCc2cc(C)ccc2OC)C1 (stereo not drawn) [DDD01069824]	1.26	90.1	–
CN(Cc1ncc(C(C)(C)C)o1)CC1CCCN1c1cccnn1 (stereo not drawn) [DDD01301524]	1.81	–	–
O=C(c1ccc(F)c(Cl)c1)N1C[C@H]2CC[C@@H](C1)N(Cc1ccccc1)C2 [DDD01257805]	1.16	85.8	IC50 [1]: 5.31 µM; Emax [4]: 91.8%; IC50 [5]: 2.39 µM; Emax [6]: 97.8%
CC(O)CN1CCC(CNCc2ccc(OC(F)(F)F)cc2)CC1 (stereo not drawn) [DDD01297562]	1.25	90.4	–
CCC[C@H]1CN(c2nc(CO)cs2)C[C@@H]1NC(=O)C1(COC)CC1 [DDD01253377]	1.81	80.7	–
CCC1CN(CC(=O)NCCN2CCCCCC2)c2ccccc2S1 (stereo not drawn) [DDD01025851]	1.73	82.5	–
Clc1cc(CN2CCCN3CCCC3C2)c2ncccc2c1 (stereo not drawn) [DDD01063271]	1.74	93	–
O=S(=O)(NC[C@H]1C[C@@H]2CCN1C[C@@H]2CN1CCCC1)c1ccc(Cl)cc1 [DDD01024774]	1.46	91	–
